Data reported in patent US12544431B2, “Peptides for the treatment of cancer and/or metastasis” (BCN PEPTIDES, S.A., priority 2019, dated 2026).
Where two headings read alike, the source gives them in different places. Marks after values point to notes of the source that are not given here. Values belong to the compound of their own block, whether it stands above or below them. *1 amine or outer side, *2 acyl side, *3 side chain or, on linkers, in order; H or OH if unused. Where a SMILES comes first, the peptide text is derived from it. Bridges are numbered along the chain shown (N, C = ends). Roman numbers before positions name the chains, in order. [ ]: non-standard residue; d: D form. The star is where a group is joined. Phe(2,4,6-Me3) = Cc1cc(C)c(C[C@H](N)C(=O)O)c(C)c1; X1 = Cc1cc(C)c(CC(N[*:1])C(=O)[*:2])c(C)c1; pGlu = O=C1CC[C@@H](C(=O)O)N1; Octanoyl = CCCCCCCC(=O)*

Assays:
[1] = tested on: RH30 rhabdomyosarcoma cells; assay: Matrigel-coated transwell invasion assay, RH30 cells; format: cell-based; settings: % invasive cells vs non-treated control
Procedure: (§1) 10^5 RH30 or RD cells were plated in the upper chamber of a Matrigel-coated transwell (Corning) in 0.1 mL medium without FBS. Cells were previously incubated with different concentrations (0 nM, 100 nM, 200 nM, 500 nM and 1000 nM) of the peptides and peptide dimer for 48 hours, being also present in the medium during the cell invasion assay. In the lower chamber, 0.6 mL of medium with FBS was added. Cells were incubated at 37° ° C. for 24 hours.
(§2) After that, cells were fixed with 4% paraformaldehyde (Sigma) for 10 minutes, followed by washing with PBS. After removal of the Matrigel and remaining cells from the upper face of the membrane with a cotton swab, the cells present on the lower face were stained with a Hoechst dilution (Sigma) and were counted (5 fields for each well) with an inverted fluorescence microscope Nikon with a 10× objective. All experiments were made in triplicate. In Table 6 the % Invasiveness represents the mean percentage of invasive cells with respect to their controls.

[2] = tested on: RD rhabdomyosarcoma cells; assay: Matrigel-coated transwell invasion assay, RD cells; format: cell-based; settings: % invasive cells vs non-treated control
Procedure: as §1, §2

[3] = In vitro stability, half-life in human plasma; format: in vitro ADME; settings: 90% human plasma, 37° C., RP-HPLC, read-out: t½ (hours) in human plasma (converted)
Procedure: The peptides and peptide dimer synthesized and prepared in accordance with Example 1 were dissolved in water at a concentration of 6 mg/mL and warmed up to 37° C.
Human plasma was obtained as a lyophilized solid (K3 EDTA Plasma, BBI Solutions, code S112-1), reconstituted with sterile 0.9% sodium chloride solution and stored at −20° C. Human plasma was thawed and incubated at 37° C. before use.
The peptides and peptide dimer were incubated in 90% human plasma at 37° C. for different times and then precipitated with two volume equivalents of methanol. The samples were cooled in an acetone-carbon dioxide bath for a few seconds and centrifuged for 12 minutes at 4° C. at approximately 10,000 rpm. The supernatant was filtered with a 0.45 μm PVDF filter and analyzed in triplicate by RP-HPLC using an isocratic method (Eluent A=0.1% TFA in water; Eluent B=0.07% TFA in ACN, Column=Kromasil C8, 100 Å, 5 μm, 250×4.6 mm, Flow=1 mL/min, Wavelength: 220 nm, Injection volume=20 μL, Temperature=60° C.). The disappearance of the compound was determined in relation to the area of the initial time to calculate its half-life.

[4] = 500 nM peptide, listed as Octanoyl-SEQ ID NO: 5—NH2

Compound: CCCCCCCC(=O)N[C@@H](CCCCN)C(=O)N[C@@H](CCCNC(=N)N)C(=O)N[C@@H](CC(=O)O)C(=O)N[C@@H](CO)C(=O)N[C@@H](CO)C(=O)N[C@@H](CC(N)=O)C(=O)N[C@@H](CO)C(=O)N[C@@H](CS)C(=O)N[C@@H](CC(=O)O)C(=O)N[C@@H](CC(C)C)C(=O)N1CCC[C@H]1C(=O)N[C@@H](CCC(=O)O)C(=O)N[C@@H](Cc1c(C)cc(C)cc1C)C(=O)N[C@@H](CCCCN)C(N)=O [Octanoyl-SEQ ID NO: 5-NH2, Octanoyl-Lys-Arg-Asp-Ser-Ser-Asn-Ser-Cys-Asp-Leu-Pro-Glu-Msa-Lys-NH2] (Octanoyl-KRDSSNSCDLPE[Phe(2,4,6-Me3)]K-NH2)
% Invasiveness RH30 ([1]; 100 nM peptide): 120.81% | % Invasiveness RH30 ([1]; 500 nM peptide): 41.12* % | % Invasiveness RH30 [1, 4]: significant reduction | % Invasiveness RD ([2]; 100 nM peptide): 56.90% | % Invasiveness RD ([2]; 500 nM peptide): 14.16* % | % Invasiveness RD [2, 4]: significant decrease | half-life at 0.6 mg/mL [3]: 0.15 h

Compound: Cc1cc(C)c(C[C@H](NC(=O)[C@H](CCC(=O)O)NC(=O)[C@@H]2CCCN2C(=O)[C@H](CC(C)C)NC(=O)[C@H](CC(=O)O)NC(=O)[C@H](CSSC[C@H](NC(=O)[C@H](CO)NC(=O)[C@H](CC(N)=O)NC(=O)[C@H](CO)NC(=O)[C@H](CO)NC(=O)[C@H](CC(=O)O)NC(=O)[C@H](CCCNC(=N)N)NC(=O)[C@H](CCCCN)NC(=O)[C@@H]2CCC(=O)N2)C(=O)N[C@@H](CC(=O)O)C(=O)N[C@@H](CC(C)C)C(=O)N2CCC[C@H]2C(=O)N[C@@H](CCC(=O)O)C(=O)N[C@@H](Cc2c(C)cc(C)cc2C)C(=O)N[C@@H](CCCCN)C(N)=O)NC(=O)[C@H](CO)NC(=O)[C@H](CC(N)=O)NC(=O)[C@H](CO)NC(=O)[C@H](CO)NC(=O)[C@H](CC(=O)O)NC(=O)[C@H](CCCNC(=N)N)NC(=O)[C@H](CCCCN)NC(=O)[C@@H]2CCC(=O)N2)C(=O)N[C@@H](CCCCN)C(N)=O)c(C)c1 [(SEQ ID NO: 6-NH2)2 (disulfide bridge), (Pyr-Lys-Arg-Asp-Ser-Ser-Asn-Ser-Cys-Asp-Leu-Pro-Glu-Msa-Lys-NH2)2 (disulfide bridge)] (I: [pGlu]KRDSSNSCDLPE[Phe(2,4,6-Me3)]K-NH2 / II: [pGlu]KRDSSNSCDLPE[Phe(2,4,6-Me3)]K-NH2; disulfide I:9-II:9)
% Invasiveness RH30 ([1]; 100 nM peptide): 82.46* % | % Invasiveness RH30 ([1]; 100 nM peptide, listed as (SEQ ID NO: 6—NH2)2): significant reduction | % Invasiveness RH30 ([1]; 200 nM peptide): 70.84* % | % Invasiveness RH30 ([1]; 500 nM peptide): 78.26* % | % Invasiveness RH30 ([1]; 1000 nM peptide): 57.59* % | % Invasiveness RD ([2]; 500 nM peptide): 64.71% | % Invasiveness RD ([2]; 1000 nM peptide): 25.36* % | % Invasiveness RD ([2]; 1000 nM peptide, listed as (SEQ ID NO: 6—NH2)2): significant decrease | half-life at 0.6 mg/mL [3]: 33.1 h

Further lines, with some results ahead:

half-life at 0.6 mg/mL [3]: 3.6 h
Compound: CCCCCCCC(=O)N[C@@H](CCCCN)C(=O)N[C@@H](CCCNC(=N)N)C(=O)N[C@@H](CC(=O)O)C(=O)N[C@@H](CO)C(=O)N[C@@H](CO)C(=O)N[C@@H](CC(N)=O)C(=O)N[C@@H](CO)C(=O)N[C@@H](CCSC)C(=O)N[C@@H](CC(=O)O)C(=O)N[C@@H](CC(C)C)C(=O)N1CCC[C@H]1C(=O)N[C@@H](CCC(=O)O)C(=O)NC(Cc1c(C)cc(C)cc1C)C(=O)N[C@@H](CCCCN)C(N)=O (stereo partly drawn) [Octanoyl-SEQ ID NO: 8-NH2, Octanoyl-Lys-Arg-Asp-Ser-Ser-Asn-Ser-Met-Asp-Leu-Pro-Glu-Msa-Lys-NH2] (Octanoyl-KRDSSNSMDLPE[X1]K-NH2)
% Invasiveness RH30 ([1]; 100 nM peptide): 88.38% | % Invasiveness RH30 ([1]; 200 nM peptide): 99.30% | % Invasiveness RH30 ([1]; 500 nM peptide): 71.92% | % Invasiveness RH30 ([1]; 1000 nM peptide): 74.06% | % Invasiveness RD ([2]; 100 nM peptide): 75.55% | % Invasiveness RD ([2]; 200 nM peptide): 113.22% | % Invasiveness RD ([2]; 500 nM peptide): 63.27% | % Invasiveness RD ([2]; 1000 nM peptide): 15.89* % | % Invasiveness RD ([2]; 1000 nM peptide, listed as Octanoyl-SEQ ID NO: 8—NH2): significant decrease

half-life at 0.6 mg/mL ([3]; human plasma (K3 EDTA)): 0.32 h
Compound: Ac-RDSSNSCDLPEF-NH2 [Ac-SEQ ID NO: 10-NH2, Ac-Arg-Asp-Ser-Ser-Asn-Ser-Cys-Asp-Leu-Pro-Glu-Phe-NH2, reference compound]
% Invasiveness RH30 ([1]; 100 nM peptide): 83.91% | % Invasiveness RH30 ([1]; 500 nM peptide): 113.68% | % Invasiveness RD ([2]; 100 nM peptide): 106.77% | % Invasiveness RD ([2]; 500 nM peptide): 59.90%

half-life at 0.6 mg/mL [3]: 0.23 h
Compound: CC(=O)N[C@@H](CCCCN)C(=O)N[C@@H](CCCNC(=N)N)C(=O)N[C@@H](CC(=O)O)C(=O)N[C@@H](CO)C(=O)N[C@@H](CO)C(=O)N[C@@H](CC(N)=O)C(=O)N[C@@H](CO)C(=O)N[C@@H](CS)C(=O)N[C@@H](CC(=O)O)C(=O)N[C@@H](CC(C)C)C(=O)N1CCC[C@H]1C(=O)N[C@@H](CCC(=O)O)C(=O)NC(Cc1c(C)cc(C)cc1C)C(=O)N[C@@H](CCCCN)C(N)=O (stereo partly drawn) [Ac-SEQ ID NO: 5-NH2, Ac-Lys-Arg-Asp-Ser-Ser-Asn-Ser-Cys-Asp-Leu-Pro-Glu-Msa-Lys-NH2] (Ac-KRDSSNSCDLPE[X1]K-NH2)
% Invasiveness RH30 ([1]; 100 nM peptide): 24.83* % | % Invasiveness RH30 ([1]; 100 nM peptide, listed as Ac-SEQ ID NO: 5—NH2): significant reduction | % Invasiveness RH30 ([1]; 500 nM peptide): 18.49* % | % Invasiveness RD ([2]; 100 nM peptide): 100.80% | % Invasiveness RD ([2]; 500 nM peptide): 35.59%
